Where two headings read alike, the source gives them in different places.
How the values were obtained:
LogD7.4 assay = format: physicochemical; settings: octanol/PBS buffer; octanol/PBS pH 7.4
Procedure: Compounds (100 µM) were shaken at 300 rpm at room temperature for 4 h in a biphasic system of octanol and PBS buffer pH 7.4 in a 96-well plate in triplicate. The relative drug concentration in each phase was then determined by the peak area measurement from LC-UV analysis on an Agilent 1260 chromatography instrument (UV detection at 254 nm and 220 nm). LogD is calculated as follows: LogD = Log[peak area of compound in octanol x injection volume of buffer phase/peak area of compound in buffer x injection volume of octanol phase].

A549 xenografts = test: Anti-tumour efficacy study in A549 lung cancer xenograft model; format: in vivo, mouse
Procedure: For efficacy in A549 xenografts, 90 male BALB/c nude mice aged 6–8 weeks and weighing approximately 20–26 g were inoculated subcutaneously in the right flank with 1 × 10^7 A549 tumour cells (ATCC) in 0.1 mL of PBS with Matrigel (1:1) to aid tumour development. When the mean tumour size reached approximately 150 mm^3, 10 mice were randomised to each experimental group, using a randomised block approach. Groups sizes were devised based on past experience of the provider. Treatment started on Day 11 after tumour inoculation with mice receiving ALM301 (either 10, 30 or 100 mg/kg) or vehicle control. Tumour size was measured twice weekly in two dimensions using a caliper, and the volume expressed in mm^3 using the formula: V = 0.5 (a × b^2), where a and b are the long and short diameters of the tumour, respectively.

normal cell lines = test: In vitro proliferation assay (CellTiter-Glo), normal cell lines; format: cell-based; settings: normal cell lines, 72 h; read-out: anti-proliferative IC50, normal cells
Procedure: (§1) MCF-7, T47D, NCI-H460, HCT116, LNCaP, A431, PC3, PANC-1, A549, HT29M, SKOV-3, Du145, HMEC-1, Hs888Lu, Hela, MDA-MB-231 and SW480 cells were obtained from American Type Culture Collection (ATCC). A2780, PNT2, U251MG, HFFF2 and Fr2 cells were obtained from Public Health England European Collection of Authenticated Cell Cultures (Phe ECACC). InMyoFib and NHLF cells were acquired from Lonza. Cells were then incubated with increasing concentration of inhibitor (1 nM to 100 µM) for 72 h at 37 °C. Cell viability was determined using the CellTiter-Glo Luminescent Cell Viability Assay (Promega). IC50 values were derived as previously stated.

Kinetic solubility assay = format: physicochemical; settings: PBS buffer, pH 7.4, aqueous buffer, kinetic from dmso stock, PBS pH 7.4; read-out: Kinetic solubility pH7.4
Procedure: Compound solubility was tested in Dulbecco A PBS buffer at pH7.4 in Millipore MultiScreen Solubility Filter plates. Analysis was carried out on a Bioteck Synergy 4 plate reader (240–400 nm) and solubility quantified against a 5-point calibration curve.

PDK1 = PDK1 (Homo sapiens, UniProt O15530); test: SelectScreen kinase selectivity profiling, PDK1; format: biochemical
Procedure: (§2) Off-target kinase activity was performed using the SelectScreen kinase profiling service against either mini 50 kinase or full 450 kinase panels using the Z’lyte and Adapta kinase activity platforms (performed by Thermofisher).

[1] = Pharmacokinetic study in Sprague–Dawley rats; format: in vivo, rat; settings: male SD rats
Procedure: Eight rats were purchased and 6 used on the PK study (3 per administration route). The remaining rats were purchased in case of mis-dosing events and were used to obtain blank biological matrix. Compounds were administered as single i.v. doses at 1 mg free base/kg or single oral doses at 5 mg free base/kg, with blood samples obtained from three rats per dose route, at 9 time-points out to 24 h post-dose. Both the intravenous and oral doses were prepared at a concentration of 1 mg free base/mL in a mixture of 5% DMSO/95% saline. Blood samples were centrifuged to give plasma. Plasma proteins were precipitated, and compounds extracted by addition of six volumes of acetonitrile containing warfarin as internal standard. Samples were centrifuged at 4000 rpm for 30 min and the supernatants were analysed on a Waters Xevo TQ mass spectrometer. Multiple Reaction Monitoring (MRM) methods were developed for each test compound using Waters IntelliStart software.
Quantification of test compounds was by extrapolation from calibration lines prepared in control rat plasma and analysed concurrently with experimental samples.
Non-compartmental analysis was performed using the software package PK Solutions 2.0 from Summit Research Services to produce the PK parameters. AUC values were calculated by the trapezoidal method.
Oral bioavailability was estimated by comparison of the drug concentration/time AUCs for individual animals after oral dosing with the mean AUC from i.v. doses.

AKT3 [2] = molecular target: T1, AKT3 (Homo sapiens, UniProt Q9Y243); test: SelectScreen kinase selectivity profiling, AKT3; format: biochemical; settings: read-out: % inhibition @ 10 µM, AKT3; 10 µM fixed concentration
T1 construct: purchased Signal Chem
Procedure: as §2

[3] = test system: panel of over 450 kinases; test: SelectScreen kinase selectivity profiling, full panel; format: biochemical
Procedure: as §2

CYP 1A2 = CYP 1A2 (Homo sapiens, UniProt P05177); test: CYP1A2 inhibition; format: in vitro ADME
MCF-7 cells = test: In vitro Incucyte live cell imaging proliferation assay; format: cell-based; settings: MCF-7, 5 µM, 7d time course
Procedure: MCF-7 cells were obtained from American Type Culture Collection (ATCC). […] Cell confluency was measured over time using an Incucyte Zoom S3 using the basic analyser processing analysing tool. Percentage confluence values were calculated and IC50 values were derived as previously stated.

A549 cells = test: In vitro proliferation assay (CellTiter-Glo), A549; format: cell-based; settings: Homo sapiens; A549 cell line
Procedure: as §1

AKT2 = molecular target: T2, AKT2 (Homo sapiens, UniProt P31751); test: SelectScreen kinase selectivity profiling, AKT2; format: biochemical; settings: read-out: % inhibition @ 10 µM, AKT2; 10 µM fixed concentration
T2 construct: purchased Signal Chem
Procedure: as §2

AKT3 [4] = molecular target: T1, AKT3; test: AKT3 biochemical kinase assay (FP iMAP)
Procedure: Biochemical analysis was performed using kinases obtained from Millipore (AKT1, ∆AKT1, ∆AKT2, ∆AKT3) and Signal Chem (AKT2 and AKT3). […] (Molecular Devices) against the three isoforms of AKT and their PH domain null mutants. Compounds were dissolved in DMSO prior to screening at 14 point titration series in the range (50 µM–50 pM). Fluorescence polarisation was measured using a Biotek Synergy 4 Hybrid microplate reader. Percentage inhibition of kinase activity was calculated and IC50 values derived using non-linear regression on GraphPad Prism. Competition of ALM301 with ATP was determined using AKT1 under increasing ATP concentrations up to 1000 µM.

T1 sequence (Q9Y243 whole entry): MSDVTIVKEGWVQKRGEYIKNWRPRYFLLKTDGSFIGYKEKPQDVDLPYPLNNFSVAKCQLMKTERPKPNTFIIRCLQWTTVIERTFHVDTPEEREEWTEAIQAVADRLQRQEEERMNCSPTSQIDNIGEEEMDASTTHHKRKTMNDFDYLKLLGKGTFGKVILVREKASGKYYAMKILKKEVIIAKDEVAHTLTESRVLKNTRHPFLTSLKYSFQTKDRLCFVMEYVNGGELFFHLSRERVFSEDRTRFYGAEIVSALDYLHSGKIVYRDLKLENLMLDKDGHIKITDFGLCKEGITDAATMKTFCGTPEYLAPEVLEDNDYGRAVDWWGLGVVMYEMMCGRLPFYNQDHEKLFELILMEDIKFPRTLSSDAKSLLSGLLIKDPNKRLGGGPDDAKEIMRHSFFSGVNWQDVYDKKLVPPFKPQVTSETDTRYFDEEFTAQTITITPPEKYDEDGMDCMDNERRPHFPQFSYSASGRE
Sequence of PDK1 (O15530 whole entry): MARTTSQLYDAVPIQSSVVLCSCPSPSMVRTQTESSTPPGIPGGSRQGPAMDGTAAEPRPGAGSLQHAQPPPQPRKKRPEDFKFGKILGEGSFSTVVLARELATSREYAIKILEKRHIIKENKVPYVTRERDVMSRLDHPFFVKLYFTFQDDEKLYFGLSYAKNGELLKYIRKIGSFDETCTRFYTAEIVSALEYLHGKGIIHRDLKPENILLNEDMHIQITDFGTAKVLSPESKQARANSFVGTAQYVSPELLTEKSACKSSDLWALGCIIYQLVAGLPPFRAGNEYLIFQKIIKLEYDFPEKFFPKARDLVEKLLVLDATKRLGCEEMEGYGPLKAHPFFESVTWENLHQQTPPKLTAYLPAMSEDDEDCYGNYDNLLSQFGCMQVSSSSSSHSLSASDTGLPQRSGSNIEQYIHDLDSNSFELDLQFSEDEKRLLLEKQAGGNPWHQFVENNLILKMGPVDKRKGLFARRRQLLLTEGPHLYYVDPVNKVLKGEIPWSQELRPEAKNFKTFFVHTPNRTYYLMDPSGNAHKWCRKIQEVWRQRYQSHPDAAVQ
T2 sequence (P31751 whole entry): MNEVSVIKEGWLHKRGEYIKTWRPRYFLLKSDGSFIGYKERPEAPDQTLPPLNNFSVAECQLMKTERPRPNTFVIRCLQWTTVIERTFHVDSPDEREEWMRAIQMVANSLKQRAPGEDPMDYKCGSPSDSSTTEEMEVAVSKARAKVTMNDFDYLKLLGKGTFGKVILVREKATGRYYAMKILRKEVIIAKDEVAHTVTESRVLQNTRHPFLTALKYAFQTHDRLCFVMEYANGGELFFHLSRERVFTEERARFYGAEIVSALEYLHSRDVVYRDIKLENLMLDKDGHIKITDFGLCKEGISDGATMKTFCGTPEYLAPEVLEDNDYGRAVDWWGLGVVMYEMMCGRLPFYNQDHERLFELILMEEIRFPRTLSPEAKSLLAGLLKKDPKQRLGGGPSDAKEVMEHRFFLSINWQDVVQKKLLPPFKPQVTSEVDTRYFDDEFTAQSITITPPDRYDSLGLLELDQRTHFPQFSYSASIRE
Sequence of CYP 1A2 (P05177 whole entry): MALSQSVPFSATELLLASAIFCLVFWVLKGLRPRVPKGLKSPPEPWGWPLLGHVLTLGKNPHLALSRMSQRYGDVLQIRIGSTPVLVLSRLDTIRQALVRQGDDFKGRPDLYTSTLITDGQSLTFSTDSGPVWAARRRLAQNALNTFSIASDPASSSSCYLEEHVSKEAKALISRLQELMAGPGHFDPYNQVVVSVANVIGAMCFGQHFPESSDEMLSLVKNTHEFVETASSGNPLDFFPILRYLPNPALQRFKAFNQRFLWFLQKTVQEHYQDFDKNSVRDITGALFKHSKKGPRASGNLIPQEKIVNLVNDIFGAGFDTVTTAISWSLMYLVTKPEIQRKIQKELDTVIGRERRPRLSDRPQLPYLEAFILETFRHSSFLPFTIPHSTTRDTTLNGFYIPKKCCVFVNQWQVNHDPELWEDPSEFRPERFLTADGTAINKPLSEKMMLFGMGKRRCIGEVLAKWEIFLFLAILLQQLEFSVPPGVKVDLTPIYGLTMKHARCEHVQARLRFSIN

For `CCN1C(=O)COc2nc(-c3ccc([C@]4(N)C[C@@H](O)C4)cc3)c(-c3ccccc3)cc21` [ALM301, 6-(4-((1S,3S)-1-amino-3-hydroxycyclobutyl)phenyl)-1-ethyl-7-phenyl-1H-pyrido[2,3-b][1,4]oxazin-2(3H)-one], the logD at 4 h (LogD7.4 assay) was 1.2, the “tolerability / body weight” value (A549 xenografts; 100 mg/kg dosing group, recovered after every other day dosing) was “Moderate bodyweight loss” and the “tolerability / body weight” value (A549 xenografts; 10 and 30 mg/kg dose groups) was “no body weight loss or adverse effects observed”. For the same molecule, the “tumour growth inhibition (TGI)” value (A549 xenografts; p.o. 10 mg/kg q.d. × 28) was 23%, the “tumour growth inhibition (TGI)” value (A549 xenografts; p.o. 30 mg/kg q.d. × 28) was 31% and the “tumour growth inhibition (TGI)” value (A549 xenografts; p.o. 100 mg/kg q.d × 3 then q.o.d. × 25) was 41%. The IC50 (normal cell lines) was > 20 µM, the solubility kinetic (Kinetic solubility assay) was 192 µM and the IC50 (PDK1; 10-point titration curve) was > 10 µM. The inhibition at 10 µM (PDK1; read-out: % inhibition @ 10 µM, PDK1, 10 µM fixed concentration) was 77%, the clearance ([1]; Sprague-Dawley, rat, plasma, iv, 1 mg/kg i.v., read-out: Rat PK CL) was 19 mL/min/kg and the Vd ([1]; Sprague-Dawley, rat, plasma, iv, 1 mg/kg i.v., read-out: Rat PK Vd) was 13 L/kg. For the same molecule, the “Rat PK F” value ([1]; 1 mg/kg i.v. and 5 mg/kg p.o., AUC 0-∞) was 26%, the inhibition at 10 µM (AKT3 [2]) was 72% and the “inhibition versus the additional 21 PH domain containing kinases” value ([3]; 21 PH domain containing kinases assayed) was “did not demonstrate any inhibition”. For the same molecule, the “selectivity against a panel of over 450 kinases” value ([3]; fixed concentration of 10 µM) was “highly selective”, the IC50 (CYP 1A2) was > 25 µM and the “cell proliferation by live cell imaging” value (MCF-7 cells) was “completely abrogated cell proliferation”. For the same molecule, the IC50 (A549 cells) was 43 µM, the inhibition at 10 µM (AKT2) was 89% and the “potency versus AKT3 reduced relative to AKT1 and AKT2” value (AKT3 [4]; in vitro kinase assays) was “over 20 fold”. The IC50 (AKT3 [4]; read-out: AKT IC50, AKT3) was 2.75 µM and the IC50 (AKT3 [4]; read-out: IC50 AKT3) was > 0.5 µM.

From PMC9489722, “Identification and development of a subtype-selective allosteric AKT inhibitor suitable for clinical development” (Scientific Reports, 2022)
